According to patent US20120190752A1, “EXO-S-MECAMYLAMINE METHOD, USE, AND COMPOUND FOR TREATMENT” (Targacept Inc., priority 2009, published 2012):

Test system: subjects with major depressive disorder (MDD) who were inadequate responders to citalopram
Test: SIS (Sheehan Irritability Scale), total and individual items, Phase 2b add-on trial
Assay type: in vivo, human
Parameters: SIS Adj. Mean change / SIS total score change Adjusted Mean / SIS Anger With Others change Adjusted Mean / SIS Anger With Self change Adjusted Mean / SIS Edginess change Adjusted Mean / SIS Irritability change Adjusted Mean / SIS Moodiness change Adjusted Mean / SIS Temper change Adjusted Mean: scale not given here
Conditions: for SIS Difference vs placebo / SIS Adj. Mean change: ITT; for SIS Difference vs placebo: Week 8 to Week 16 LOCF; for SIS Adj. Mean change: change from Week 8 (double-blind baseline) to Week 16 LOCF, add-on to citalopram
Description: In more detail, a multi-center double-blind, randomized, placebo-controlled, parallel group, flexible dose titration study of TC-5214 as adjunctive therapy in subjects with major depressive disorder (MDD) who were inadequate responders to citalopram was conducted in centers in the US and India. The study consisted of a screening period, baseline/washout period, open-label phase, double-blind phase, and a follow-up visit. Subject participation in the study could continue for up to 16 weeks of treatment. Following a washout period of up to 28 days for other antidepressants, subjects with MDD and a MADRS total score >/=28 and a Clinical Global Impression-Severity (CGI-S) score >/=4 were enrolled on Day 1 into an open-label citalopram-only phase of the study. This phase lasted 8 weeks, with citalopram (CIT) dose increased from a once-daily dose of 20 mg (Day 1 through Week 4) to 40 mg (Week 4 through Week 8). A total of 579 subjects entered the open-label citalopram phase. At Week 8, subjects who tolerated 40 mg CIT, but whose MADRS score was reduced <50% from baseline and no lower than 17, and CGI-S≧4, were considered inadequate responders. These subjects (n=270) were randomized in a double-blind fashion to receive either placebo or TC-5214-23 as add-on therapy to continued CIT. The double-blind phase of the study also lasted 8 weeks (Week 8 to Week 16). Study drug, TC-5214-23 or placebo, was started at 2 mg daily (1 mg twice per day [BID] dosing), added on to continuing CIT (40 mg PO qd). After 2 weeks of treatment, the dose of TC-5214 could be increased to 4 mg (2 mg BID) or continued unchanged, with up-titration based upon good tolerability and inadequate therapeutic response. After a further 2 weeks, the dose of TC-5214 could be increased again to 8 mg (4 mg BID) if judged appropriate by the investigator, based upon good tolerability and inadequate therapeutic response. At any time during the double-blind phase of the study, placebo or TC-5214-23 could be reduced to the previous dose level following the emergence of unacceptable adverse events (AEs). […] At this follow-up, any signs or symptoms of relapse were evaluated. If a subject was prematurely discontinued from the study between Week 8 and Week 16 for any reason, the investigator was to make every effort to perform all evaluations as per protocol, assuming the subject had reached the end of the double-blind add-on treatment phase. These evaluations were to be made as soon as possible and within 2 weeks of discontinuation. […] There was no meaningful difference in results as a function of age, gender, site, or smoking status. [table] With regard to efficacy endpoints, the following tables present efficacy used in the ITT (Intent-to-Treat) and PP (Per Protocol) populations unless otherwise specific. The primary inference was based upon Week 16 visit using the ITT population. Change from baseline was obtained by subtracting the baseline values from the individual on-treatment values. Change from Week 16 was obtained by subtracting the Week 16 values from the individual follow-up visit (Week 18/19) values. If either the baseline or Week 16 or on-treatment or follow-up value was missing, the change from baseline or Week 16 value was also set to missing. To account for missing data, the last observation carry forward (LOCF) method was used for the ITT and PP populations. Thus, the last available on-therapy observation for a subject, including the observation at premature discontinuation, was used to estimate subsequent missing data points. For efficacy, baseline data were collected at Week 8 in the double-blind augmentation phase electronic case report form pages. For SIS, the endpoint was the change from Week 8 (double-blind baseline) to Week 16 of the SIS. Changes were analyzed using ANCOVA. Each SIS item score was also analyzed using ANCOVA. […]

[1] = ITT Population, Double Blind Week 16 LOCF, change from Week 8 (double-blind baseline)
[2] = ITT Population, Double Blind Week 18 LOCF (Follow-up)
[3] = ITT and PP populations, result in words
[4] = PP Population, Double Blind Week 16 LOCF, change from Week 8 (double-blind baseline)
[5] = PP Population, Double Blind Week 18 LOCF (Follow-up)

CNC1(C)C2CCC(C2)C1(C)C (stereo in doubt) [TC-5214, (S)—N,2,3,3-tetramethylnorbornan-2-amine]
SIS total score change Adjusted Mean [1]: −18.21
SIS total score change Mean Difference between TC-5214 and Placebo [1]: 8.76
SIS total score change Adjusted Mean [2]: −0.68
SIS total score change Mean Difference between TC-5214 and Placebo [2]: −0.51
SIS total score change from baseline compared with placebo [3]: statistically significant decreases (improvements)
each SIS individual item change from baseline compared with placebo [3]: statistically significant decreases (improvements)
SIS Difference vs placebo: −8.54 (−11.65, −5.44)
SIS Difference vs placebo (listed as TC-5214 + CIT): −8.54
SIS Adj. Mean change: −18.21 (1.12)
SIS Adj. Mean change (listed as TC-5214 + CIT): −18.21
SIS total score change Adjusted Mean [4]: −19.96
SIS total score change Mean Difference between TC-5214 and Placebo [4]: 10.04
SIS total score change Adjusted Mean [5]: −0.77
SIS total score change Mean Difference between TC-5214 and Placebo [5]: −0.34
